Test results as given in patent US20050228046A1, “Alkylamine as an antimicrobial agent in ophthalmic compositions” (ADVANCED MEDICAL OPTICS, INC., priority 2004, published 2005).

Test system: five FDA/ISO specified test organisms
Assay: Antimicrobial activity against the five-microbial panel, FDA/ISO disinfection criteria
Type: cell-based
Settings: for stand-alone criteria: 10 ppm MA
Protocol: The following is the procedure by which various antimicrobial agents and solutions are tested for their ability to reduce microbial loads over short periods of time, typically 24 hours and less. The procedure is a basic microbiology challenge test, which involves the inoculation of test product aliquots with a known number of viable cells of several test organisms, and assay for the survivors at various time intervals. The results are used to calculate log drops at soak times and construct kill-curves (graphs of survivors versus time) if desired. Candida albicans, ATCC 10231, is one of five organisms specified per FDA and ISO/CLI tests for the testing of contact lens disinfectants (FDA Premarket Notification (510k) Guidance Document for Contact Lens Care Products, Appendix B, Apr. 1, 1997 and ISO/FDIS 14729: Ophthalmic optics-Contact lens care products-Microbiological requirements and test methods for products and regimens for hygienic management of contact lenses, January 2001). Contact lens disinfectants are also known as contact lens multi-purpose solutions when they are used for rinsing, cleaning, disinfection, storage and rewetting contact lenses. The five FDA/ISO specified test organisms are listed below: • Serratia marcescens, ATCC 13880 • Staphylococcus aureus, ATCC 6538 • Pseudomonas aeruginosa, ATCC 9027 • Candida albicans, ATCC 10231 • Fusarium solani, ATCC 36031 Candida albicans is often the most resistant of the five organisms to commonly used cationic antimicrobial agents in contact lens multi-purpose solutions. Thus, achievement of adequate antimicrobial activity against Candida is often the most difficult task to pass a particular disinfection efficacy standard. FDA and ISO guidelines specify two disinfection efficacy standards, indicated in the table below: Stand Alone Disinfectant (Primary) Criteria: [table] The specific test procedure for testing antimicrobial activity against the five FDA/ISO specified test organisms is as follows (C. albicans is provided as a specific example): Test samples are sterile-filtered through a 0.22 micron sterile filter into sterile plastic high density polyethylene bottles or plastic flasks. A 10-mL aliquot of test sample is aseptically transferred into a sterile polystyrene plastic test tube. Sterile saline (0.90 w/v % NaCl) with 0.05 w/v % Polysorbate 80 (SS+TWEEN) is transferred into a separate control tube. All samples and control are stored at 20-25° C. throughout the duration of the test.

CCCCCCCCCCCCCCN [Myristylamine]
stand-alone criteria (Tween 80:MA ratio 7.4): fail to meet the stand-alone criteria
stand-alone criteria (Tween 80:MA ratio 7.4, with addition of Polyquaternium-1): can still be a stand-alone disinfectant product
anti-bacteria activity (TPGS:MA ratio of 40): lost considerably
anti-fungal activity (Ca and Fs) (TPGS:MA ratio of up to 60): still seen
